One test deals with TICs (Colon 12). In words: Colon tumor-initiating cell growth inhibition (Alamar Blue). Type of test: cell-based. The note with it: 216 h, 9 days, read-out: Tumor Initiating Cell GI50 Range Colon 12. Background: The colour change of resazurin is a common sign of viable cells or microbes.
For test [1], the system named is ovarian cancer cells (PA-1). As to the kind of experiment: Cancer cell line growth inhibition (SRB assay). In kind it is cell-based. The note with it: read-out: Cancer Cell Line GI50 Range PA-1. For orientation: Sulforhodamine B stains cellular protein and so reports cell mass.
The subject of another test is TICs (Ovarian 2393A). In words: Ovarian tumor-initiating cell growth inhibition (Alamar Blue). Type of test: cell-based. As to conditions: 144 h; ovarian TICs, 6 days, Alamar Blue; read-out: Tumor Initiating Cell GI50 Range Ovarain 2393A.
Another test addresses T1, human PLK4 (Homo sapiens, UniProt O00444).
T1 construct: amino terminal GST fusion of residues 1-391 of human PLK4; made in house; host or cells: E. coli
T1 sequence (O00444 1-391): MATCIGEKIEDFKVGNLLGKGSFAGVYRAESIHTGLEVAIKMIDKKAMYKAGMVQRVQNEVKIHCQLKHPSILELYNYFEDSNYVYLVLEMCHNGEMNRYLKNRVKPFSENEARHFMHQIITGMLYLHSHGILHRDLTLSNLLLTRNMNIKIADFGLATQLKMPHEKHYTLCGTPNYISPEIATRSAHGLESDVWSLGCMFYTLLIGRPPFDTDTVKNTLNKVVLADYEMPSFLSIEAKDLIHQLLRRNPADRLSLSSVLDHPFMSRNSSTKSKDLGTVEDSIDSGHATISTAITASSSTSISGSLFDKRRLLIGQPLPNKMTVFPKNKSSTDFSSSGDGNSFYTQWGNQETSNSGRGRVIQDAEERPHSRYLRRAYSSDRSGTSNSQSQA
In words: PLK4 inhibition assay (indirect ELISA). In kind it is biochemical. As to conditions: 15 μM ATP. A digest of the protocol: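 Dephosphorylated GST-PLK4 (residues 1-391, E. coli; 4 nM) was preincubated 15 min with compound, then reacted 30 min with 15 μM ATP in HEPES pH 7.4, MgCl2, Brij 35 on MBP-coated plates. Phospho-MBP was detected by antibody/HRP ELISA at 450 nm; IC50 from 10-point titration by 4-parameter logistic fit, or single 10 μM % inhibition.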
A general note: ELISA stands for enzyme-linked immunosorbent assay.

Test [2] concerns colon cancer cells (HCT116). In words: Cancer cell line growth inhibition (SRB assay). In kind it is cell-based. The note with it: Homo sapiens, HCT-116, read-out: Cancer Cell Line GI50 Range HCT116.
The next test concerns the target T2, human TTK (Homo sapiens, UniProt P33981).
T2 construct: amino terminal GST fusion of full length human TTK; purchased Invitrogen
T2 sequence (P33981 1-857): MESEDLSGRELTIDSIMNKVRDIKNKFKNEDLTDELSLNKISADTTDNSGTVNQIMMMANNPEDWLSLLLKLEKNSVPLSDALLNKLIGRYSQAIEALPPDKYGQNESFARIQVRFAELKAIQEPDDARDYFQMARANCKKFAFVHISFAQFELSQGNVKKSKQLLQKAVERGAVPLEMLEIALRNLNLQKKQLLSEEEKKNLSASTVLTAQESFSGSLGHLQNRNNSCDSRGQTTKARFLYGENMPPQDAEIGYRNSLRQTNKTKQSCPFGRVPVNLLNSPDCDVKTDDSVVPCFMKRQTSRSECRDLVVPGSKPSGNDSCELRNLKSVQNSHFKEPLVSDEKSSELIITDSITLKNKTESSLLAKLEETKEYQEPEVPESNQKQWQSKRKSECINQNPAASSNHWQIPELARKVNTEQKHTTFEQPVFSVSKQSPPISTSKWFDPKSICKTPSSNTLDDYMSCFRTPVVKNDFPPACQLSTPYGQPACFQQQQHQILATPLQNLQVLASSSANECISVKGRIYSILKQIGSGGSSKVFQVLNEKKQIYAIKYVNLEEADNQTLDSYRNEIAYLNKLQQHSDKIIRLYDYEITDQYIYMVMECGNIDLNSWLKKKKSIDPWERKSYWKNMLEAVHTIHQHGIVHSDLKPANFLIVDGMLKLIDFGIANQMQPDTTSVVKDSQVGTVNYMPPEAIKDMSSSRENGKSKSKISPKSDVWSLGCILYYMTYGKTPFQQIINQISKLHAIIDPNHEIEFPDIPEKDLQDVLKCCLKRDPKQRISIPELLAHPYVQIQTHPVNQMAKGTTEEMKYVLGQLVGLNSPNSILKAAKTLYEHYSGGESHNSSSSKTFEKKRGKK
In words: TTK inhibition assay (indirect ELISA). Type of test: biochemical. As to conditions: read-out: TTK IC50 Range.

A further test relates to Breast cancer cells. In words: Cancer cell line growth inhibition (SRB assay). In kind it is cell-based. As to conditions: Homo sapiens; MDA-MB-468; read-out: Cancer Cell Line GI50 Range MDA-MB-468.
Where [3] appears, read: PA-1 ovarian cancer cells, SRB assay.
The mark [4] stands for this setting: HCT116 colon cancer cells, SRB assay.

Like-named read-outs stand apart in the source and are kept apart here. Some results are limits rather than exact numbers.

Broadly, the GI50 is the concentration at which growth is held to half of that of the control. A word on the IC50: it is the point on the concentration scale where inhibition reaches its midpoint. For the compound `CCOC(C(=O)Nc1ccc2[nH]nc(-c3ccc(OC4CCN(C)CC4)cc3)c2c1)c1ccccc1` (stereo not shown) [Example A181, 2-ethoxy-N-(3-(4-((1-methylpiperidin-4-yl)oxy)phenyl)-1H-indazol-5-yl)-2-phenylacetamide], the concentration for 50% growth inhibition (GI50) in the test on TICs (Colon 12) (colon TICs, Alamar Blue) is 0.1 to 0.5 µM; in test [1] (setting [3]) it was 0.1 to 0.5 µM; in the test on TICs (Ovarian 2393A), over 0.5 µM; in test [2] (setting [4]) it was 0.1 to 0.5 µM. For the same compound, at human PLK4, the IC50 is under 0.05 µM.
In the case of `CN1CCC(Oc2ccc(-c3n[nH]c4ccc(C(=O)N[C@@H](c5sccc5Cl)C5CC5)cc34)cc2)CC1` [Example A166, (R)-N-((3-chlorothiophen-2-yl)(cyclopropyl)methyl)-3-(4-((1-methylpiperidin-4-yl)oxy)phenyl)-1H-indazole-5-carboxamide], the GI50 is under 0.1 µM in the test on TICs (Colon 12) (colon TICs, Alamar Blue); under 0.1 µM in test [1] (setting [3]); under 0.1 µM in the test with TICs (Ovarian 2393A); under 0.1 µM in test [2] (setting [4]). Further, the half-inhibitory concentration (IC50) on human PLK4 was under 0.05 µM.
Consider `O=C(NCC1(c2ccccc2)CCOCC1)c1ccc2[nH]nc(-c3ccc(N4[C@@H]5CC[C@H]4C[C@@H](O)C5)cc3)c2c1` [Example A492, 3-(4-((1R,3R,5S)-3-hydroxy-8-azabicyclo[3.2.1]octan-8-yI)phenyl)-N-((4-phenyltetrahydro-2H-pyran-4-yl)methyl)-1H-indazole-5-carboxamide], for which the GI50 in the test with TICs (Colon 12) (Colon 12 TICs) is under 0.1 µM; in test [1] (Homo sapiens, PA-1) it was under 0.1 µM; in the test on Breast cancer cells, under 0.1 µM; in test [2] it was under 0.1 µM. Further, the IC50 at human TTK is under 0.1 µM; on human PLK4, under 0.05 µM.
Regarding `O=CN1CCC(Oc2ccc(-c3n[nH]c4ccc(NC(=O)C(c5ccccn5)C5CCCC5)cc34)cc2)CC1` (stereo not shown) [Example A176, 2-cyclopentyl-N-(3-(4-((1-formylpiperidin-4-yl)oxy)phenyl)-1H-indazol-5-yl)-2-(pyridin-2-yl)acetamide], the GI50 was in the range of 0.1 to 0.5 µM in the test on TICs (Colon 12) (colon TICs, Alamar Blue); 0.1 to 0.5 µM in test [1] (setting [3]); 0.1 to 0.5 µM with TICs (Ovarian 2393A); 0.1 to 0.5 µM in test [2] (setting [4]). Besides, at human PLK4, the concentration for half-maximal inhibition (IC50) is under 0.05 µM.
Consider `O=C(N[C@H](CCO)c1ccccc1)c1ccc2[nH]nc(-c3ccc(N4[C@@H]5CC[C@H]4COC5)cc3)c2c1` [Example A423, 3-(4-((1R,5S)-3-oxa-8-azabicyclo[3.2.1]octan-8-yl)phenyl)-N-((R)-3-hydroxy-1-phenylpropyl)-1H-indazole-5-carboxamide], for which the results for the IC50 at human TTK and on human PLK4 were under 0.1 µM and under 0.05 µM, respectively. Further, the GI50 in test [1] (Homo sapiens, PA-1) is under 0.1 µM; in the test on Breast cancer cells, under 0.1 µM; in test [2], under 0.1 µM.
As for `O=C(NCC1(c2ccccc2)CCOCC1)c1ccc2[nH]nc(-c3ccc(N4[C@@H]5COC[C@H]4C[C@@H](O)C5)cc3)c2c1` [Example A503, 3-(4-((1R,5S,7S)-7-hydroxy-3-oxa-9-azabicyclo[3.3.1]nonan-9-yl)phenyl)-N-((4-phenyltetrahydro-2H-pyran-4-yl)methyl)-1H-indazole-5-carboxamide], the IC50 at human TTK is under 0.1 µM; at human PLK4 it was under 0.05 µM. Moreover, the GI50 in test [1] (Homo sapiens, PA-1) is under 0.1 µM; in the test with Breast cancer cells, 0.1 to 0.5 µM; in test [2], under 0.1 µM.
As to `CN1C2CCC1CC(Oc1ccc(-c3n[nH]c4ccc(C(=O)N[C@H](c5ccsc5)C5CCCC5)cc34)cc1)C2` (stereo partly drawn) [Example A248, N-((S)-cyclopentyl(thiophen-3-yl)methyl)-3-(4-(((1R,3R,5S)-8-methyl-8-azabicyclo[3.2.1]octan-3-yl)oxy)phenyl)-1H-indazole-5-carboxamide], the IC50 on human TTK was under 0.1 µM; at human PLK4 it was under 0.05 µM. The GI50 is 0.1 to 0.5 µM in test [1] (Homo sapiens, PA-1); 0.1 to 0.5 µM with Breast cancer cells; 0.1 to 0.5 µM in test [2].
For `C[C@@H](O)CN1CCC(Oc2ccc(-c3n[nH]c4ccc(C(=O)N[C@H](c5ccsc5)C5CC5)cc34)cc2)CC1` [Example A220, N-((S)-cyclopropyl(thiophen-3-yl)methyl)-3-(4-((1-((R)-2-hydroxypropyl)piperidin-4-yl)oxy)phenyl)-1H-indazole-5-carboxamide], the IC50 on human TTK was under 0.1 µM; on human PLK4, under 0.05 µM. The GI50 is under 0.1 µM in test [1] (Homo sapiens, PA-1); 0.1 to 0.5 µM with Breast cancer cells; 0.1 to 0.5 µM in test [2].
As for `CC(C)CC(NC(=O)c1ccc2[nH]nc(-c3ccc(OC4CN(C5COC5)C4)cc3)c2c1)c1ccccc1Cl` (stereo not shown) [Example A357, N-(1-(2-chlorophenyl)-3-methylbutyl)-3-(4-((1-(oxetan-3-yl)azetidin-3-yl)oxy)phenyl)-1H-indazole-5-carboxamide], the values for the IC50 on human TTK and at human PLK4 were under 0.1 µM and under 0.05 µM, respectively. For the same compound, the GI50 lay in the range of 0.1 to 0.5 µM in test [1] (Homo sapiens, PA-1); 0.1 to 0.5 µM in the test with Breast cancer cells; 0.1 to 0.5 µM in test [2].
For `O=C(Nc1ccc2[nH]nc(-c3ccc(OC4CCOCC4)cc3)c2c1)C(c1ccsc1)N1CCCC1` (stereo not shown) [Example A29, 2-(pyrrolidin-1-yl)-N-(3-(4-((tetrahydro-2H-pyran-4-yl)oxy)phenyl)-1H-indazol-5-yl)-2-(thiophen-3-yl)acetamide], the GI50 was under 0.1 µM with TICs (Colon 12) (colon TICs, Alamar Blue); 0.1 to 0.5 µM in the test with TICs (Ovarian 2393A); under 0.1 µM in test [2] (setting [4]). Besides, the IC50 at human PLK4 is under 0.05 µM.
In the case of `O=C(N[C@@H](c1ccsc1)C1CCCC1)c1ccc2[nH]nc(-c3ccc(OC4CCN(CCO)CC4)cc3)c2c1` [Example A219, (R)-N-(cyclopentyl(thiophen-3-yl)methyl)-3-(4-((1-(2-hydroxyethyl)piperidin-4-yl)oxy)phenyl)-1H-indazole-5-carboxamide], the IC50 on human TTK was under 0.1 µM; on human PLK4 it was under 0.05 µM. Besides, the GI50 was under 0.1 µM in test [1] (Homo sapiens, PA-1); 0.1 to 0.5 µM with Breast cancer cells; 0.1 to 0.5 µM in test [2].
On to `CC(C)C(NC(=O)c1ccc2[nH]nc(-c3ccc(O[C@H]4C[C@H]5CC[C@@H](C4)N5C)cc3)c2c1)c1ccccc1` (stereo partly drawn) [Example A285, N-(2-methyl-1-phenylpropyl)-3-(4-(((1R,3R,5S)-8-methyl-8-azabicyclo[3.2.1]octan-3-yl)oxy)phenyl)-1H-indazole-5-carboxamide], for which the IC50 at human TTK was under 0.1 µM; on human PLK4, under 0.05 µM. Besides, the GI50 in test [1] (Homo sapiens, PA-1) is under 0.1 µM; in the test with Breast cancer cells, 0.1 to 0.5 µM; in test [2], under 0.1 µM.
Regarding `O=C(NCC1(c2ccccc2)COC1)c1ccc2[nH]nc(-c3ccc(OC4CCN(C5COC5)CC4)cc3)c2c1` [Example A487, 3-(4-((1-(oxetan-3-yl)piperidin-4-yl)oxy)phenyl)-N-((3-phenyloxetan-3-yl)methyl)-1H-indazole-5-carboxamide], the IC50 at human TTK was under 0.1 µM; on human PLK4, under 0.05 µM. Moreover, the GI50 was over 0.5 µM in test [1] (Homo sapiens, PA-1); over 0.5 µM with Breast cancer cells; over 0.5 µM in test [2].
With `CN1CCC2(CCc3cc(-c4n[nH]c5ccc(C(=O)N[C@H](c6ccccn6)C6CCCC6)cc45)ccc3O2)CC1` [Example A253, (S)-N-(cyclopentyl(pyridin-2-yl)methyl)-3-(1′-methylspiro[chroman-2,4′-piperidin]-6-yl)-1H-indazole-5-carboxamide], the values for the IC50 on human TTK and at human PLK4 were under 0.1 µM and under 0.05 µM, respectively. Moreover, the GI50 in test [1] (Homo sapiens, PA-1) is under 0.1 µM; in the test on Breast cancer cells it was 0.1 to 0.5 µM; in test [2], under 0.1 µM.

For the origin of these results see patent US9580390B2, “Indazole compounds as kinase inhibitors and method of treating cancer with same” (University Health Network, priority 2011, dated 2017).
